Two molecules from paper PMC7139703, “Thiopurine Derivative-Induced Fpg/Nei DNA Glycosylase Inhibition: Structural, Dynamic and Functional Insights” (International Journal of Molecular Sciences, 2020) can be followed below.

For one series, the system named is mvNei1 (mimivirus). Kind of series: EMSA. Conditions: N at position 7 of strand 1 = tetrahydrofuran (THF) abasic site analog, opposite C; EMSA: 0.1 nM probe, 25 mM HEPES/NaOH pH 7.5, 150 mM NaCl, 5% glycerol, 0.1 mg/mL BSA, 8% DMSO, 4 °C, 30 min; 10% native PAGE at 4 °C.
Series [1] has as its target T1, LlFpg (Lactococcus lactis) (UniProt P42371).
T1 sequence: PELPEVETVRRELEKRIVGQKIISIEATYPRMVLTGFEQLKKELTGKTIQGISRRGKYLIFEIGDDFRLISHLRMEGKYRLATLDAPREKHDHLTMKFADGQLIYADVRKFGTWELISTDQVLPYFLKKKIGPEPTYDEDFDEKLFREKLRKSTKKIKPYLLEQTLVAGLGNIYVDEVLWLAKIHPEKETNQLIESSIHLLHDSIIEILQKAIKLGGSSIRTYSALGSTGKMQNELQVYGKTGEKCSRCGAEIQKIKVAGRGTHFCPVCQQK
Briefly: EMSA. Conditions: 8% DMSO, no inhibitor, complex C1 (1:1), N at position 7 of strand 1 = tetrahydrofuran (THF) abasic site analog, opposite C, EMSA: 0.1 nM probe, 25 mM HEPES/NaOH pH 7.5, 150 mM NaCl, 5% glycerol, 0.1 mg/mL BSA, 4 °C, 30 min, 10% native PAGE at 4 °C.

The target in series [2] is ∆hNeil1 (truncated hNeil1) (human) (UniProt Q96FI4). Briefly: EMSA. Conditions: 8% DMSO, no inhibitor, named hNeil1 in the sentence, N at position 7 of strand 1 = tetrahydrofuran (THF) abasic site analog, opposite C, EMSA: 0.1 nM probe, 25 mM HEPES/NaOH pH 7.5, 150 mM NaCl, 5% glycerol, 0.1 mg/mL BSA, 4 °C, 30 min, 10% native PAGE at 4 °C.
∆hNeil1 (truncated hNeil1) (human), sequence (Q96FI4 whole entry, the tested form may be a part): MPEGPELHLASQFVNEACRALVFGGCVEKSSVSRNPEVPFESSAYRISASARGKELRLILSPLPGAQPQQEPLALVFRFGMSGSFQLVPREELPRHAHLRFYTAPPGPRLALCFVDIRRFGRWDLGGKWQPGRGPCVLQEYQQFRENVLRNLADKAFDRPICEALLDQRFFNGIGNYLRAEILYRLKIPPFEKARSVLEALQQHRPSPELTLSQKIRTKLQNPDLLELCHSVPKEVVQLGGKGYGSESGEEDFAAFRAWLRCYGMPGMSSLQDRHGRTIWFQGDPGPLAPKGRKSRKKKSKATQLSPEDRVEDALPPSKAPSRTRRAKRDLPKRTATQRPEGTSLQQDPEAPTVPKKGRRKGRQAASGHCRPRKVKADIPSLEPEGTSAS
Series [3] addresses T2, hNeil1 (Homo sapiens, UniProt Q96FI4). Kind of series: EMSA, hNeil1 DNA binding to THF-containing DNA duplex. Conditions: Figure 4.
Target sequence in this assay (Q96FI4 2-290 limits assumed): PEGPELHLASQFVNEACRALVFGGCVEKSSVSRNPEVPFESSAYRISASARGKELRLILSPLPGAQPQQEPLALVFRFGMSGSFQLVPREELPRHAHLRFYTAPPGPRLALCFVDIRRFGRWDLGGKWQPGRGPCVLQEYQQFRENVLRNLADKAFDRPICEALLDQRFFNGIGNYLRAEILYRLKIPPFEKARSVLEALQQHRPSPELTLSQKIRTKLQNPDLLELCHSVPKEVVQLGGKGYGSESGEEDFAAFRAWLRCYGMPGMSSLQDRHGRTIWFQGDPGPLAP
In series [4] the target is T3, mvNei1 (Acanthamoeba polyphaga mimivirus, UniProt Q5UQ00).
T3 construct: 6His (C); made in house; host or cells: E. coli Rosetta2 (DE3)
T3 sequence (Q5UQ00 whole entry): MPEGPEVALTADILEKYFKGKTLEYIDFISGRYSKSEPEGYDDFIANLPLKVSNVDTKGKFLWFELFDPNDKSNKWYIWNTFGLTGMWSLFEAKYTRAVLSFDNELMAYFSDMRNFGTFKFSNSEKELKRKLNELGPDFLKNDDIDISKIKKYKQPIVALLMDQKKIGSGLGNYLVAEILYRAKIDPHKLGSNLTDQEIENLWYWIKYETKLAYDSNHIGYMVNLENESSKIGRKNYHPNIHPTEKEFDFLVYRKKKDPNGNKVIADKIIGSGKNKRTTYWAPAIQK
Kind of series: mvNei1 DNA glycosylase/AP lyase activity assay on DHU:G 24-mer duplex. It counts as biochemical. Here is the method:
(§1) Figure 4 Comparative analysis of the effect of 2TX and TXn on Fpg/Nei DNA glycosylases. Enzyme activities were measured as described in the Figure 1 legend using […] of a 5′-[^32P]-24-mer DNA duplex containing either an 8-oxoG opposite C for LlFpg or a […] (DHU) opposite G for hNeil1 and mvNei1. The DNA probe was incubated with the indicated protein concentration and 0.2 mM TXn compounds in the presence or absence of 1 mM dithiothreitol (DTT) and TCEP (a representative experiment is illustrated by the upper histograms). The DNA probe for EMSA was 0.1 nM of 5′-[^32P]-[…] DNA duplex containing THF with LlFpg and mvNei1 (bottom panels: gel autoradiography) with the indicated conditions and as described in ‘Materials and Methods’.
(§2) Fpg, hNeil1 and mvNei1 are bifunctional DNA glycosylases associated with concerted DNA glycosylase activity (cleavage of the N-glycosidic bond between the base lesion and the C1′ of the deoxyribose) and AP lyase activity that comprises the successive cleavage of the phosphodiester bonds at the 3′ and 5′ of the resulting abasic (AP) site, respectively (β, δ-elimination). Thus, AP sites that result from the excision of the damaged base are quantitatively converted into one nucleoside gap by these enzymes. The DNA glycosylase/AP lyase activity of each enzyme was measured by incubating 20 nM of 24-mer DNA duplexes ([OG:C] and [DHU:G] for Fpg and hNeil1/mvNei1, respectively) 5′-labeling on the damaged strand (see above) with 2 nM of Fpg, or mvNei1 for 15 min or, with 20 nM of hNeil1 for 30 min at 37 °C in 10 mM Tris-HCl, pH 7.6, 150 mM NaCl, 1 mM EDTA, 0.1 mg/mL BSA and 8% DMSO. The reaction was stopped by the addition of 1 volume of formamide loading buffer (96% formamide, 20 mM Tris/HCl pH 8.0 and 2 mM Na2EDTA), heated at 80 °C for 2 min and then analyzed by 20% Urea-PAGE, as previously described. […] Under these conditions, only 50% of the substrate is converted to the cleavage product (limiting enzyme concentration conditions). For an initial evaluation of the inhibitory effect, 40 µM of 2TX/TXn was used. The thio-compound was added to the reaction mixture before the final addition of the enzyme (competition condition). For the best identified inhibitors, a dose-response curve was generated and IC50^A determined (Figure 1 and Table 1).

In the next series the target is T4, LlFpg (Lactococcus lactis subsp. cremoris, UniProt P42371).
T4 construct: made in house; host or cells: E. coli BH540 (fpg defective)
Briefly: LlFpg 8-oxoG-DNA glycosylase/AP lyase activity assay (Urea-PAGE radioassay). It counts as biochemical. Conditions: catalytic activity at 37 °C; compound stock (redox mixture) in DMSO; 20 nM 8-oxoG:C 24-mer, 2 nM LlFpg; read-out: IC50app^A (Fpg/Nei enzyme catalysis) LlFpg. As to the method: Figure 1 Effect of 2-thioxanthine (2TX)-derivatives on Fpg activity. A total of 20 nM of 5′-[^32P]-8-oxoG-containing 24-bp DNA duplex (labeled on the damaged strand) was incubated with 2 nM of LlFpg alone (dimethyl sulfoxide (DMSO) control) or with the indicated 2TX and 2TX-derivatives (TXn) concentrations, as described in the “Materials and Methods” section. (a) Screening of TXn for Fpg inhibition. Averages and standard deviations were obtained from at least three independent experiments. Mono- and di-thiolated compounds are highlighted in red and blue, respectively. (b) Dose-response curves for best inhibitors. Each data point represents the mean value obtained from at least three independent measurements.
as §2

Series [5] addresses T3, mvNei1. Kind of series: EMSA, mvNei1 DNA binding to THF-containing DNA duplex. The conditions noted are these: Figure 4. As to the method: Figure 4 Comparative analysis of the effect of 2TX and TXn on Fpg/Nei DNA glycosylases. Enzyme activities were measured as described in the Figure 1 legend using 0.1 nM of a 5′-[^32P]-24-mer DNA duplex containing either an 8-oxoG opposite C for LlFpg or a […] (DHU) opposite G for hNeil1 and mvNei1. The DNA probe was incubated with the indicated protein concentration and 0.2 mM TXn compounds in the presence or absence of 1 mM dithiothreitol (DTT) and TCEP (a representative experiment is illustrated by the upper histograms). […]
The DNA binding activity was measured using EMSA [37]. […] After electrophoresis, the gels were dried and exposed overnight for autoradiography using a Typhoon imager and quantified with ImageQuant software. To evaluate the inhibitor effect of 2TX/TXn on the DNA binding activity of each Fpg/Nei enzyme, we first determined the experimental conditions required to bind 50% of the DNA probes without an inhibitor in the presence of 8% DMSO (limiting enzyme concentration). […] This effect was determined by the addition of the thio-compound in the pre-equilibrium mixture of the enzyme and DNA probe (30 min) and incubated for an additional 30 min at 4 °C. For the best inhibitors of Fpg, a dose-response curve was established from at least three independent experiments and the IC50 was determined (IC50^B, Table 1).

Series [6] addresses T2, hNeil1. Briefly: hNeil1 DNA glycosylase/AP lyase activity assay on DHU:G 24-mer duplex. It counts as biochemical. Further details: Overproduction was performed as described above for full length hNeil1; 6His (C); made in house; host or cells: E. coli Rosetta2 (DE3). Here is the method:
as §1, §2
Target sequence in this assay (Q96FI4 whole entry): as the sequence (Q96FI4 whole entry, the tested form may be a part) above

Where [7] appears, read: 1 mM TCEP (DTT to a lesser extent), Figure 4.

Turning to “CTCTTTNTTTCTCG / GCGAGAAACAAAGA [14-mer THF:C]”, the K half was found to be 5 nM in the series on mvNei1 (mimivirus), 0.25 nM in series [1] and 7 nM in series [2].
Take `O=c1[nH]c2[nH]c(=S)[nH]c(=S)c2[nH]1` [TX16]: the “effect on hNeil1 DNA binding activity” value on hNeil1 [3] is listed as “apparent inhibitory effects”. Also, the “effect on mvNei1 catalytic activity” value at mvNei1 [4] (0.2 mM compound, Figure 4) is listed as “apparent inhibitory effects”. On mvNei1 [4] (setting [7]), the “inhibition of mvNei1 DNA binding and catalytic activities in the presence of TCEP” value is recorded as “suppressed”. Besides, the IC50 on mvNei1 [4] (catalytic activity at 37 °C, compound stock in DMSO, DHU:G 24-mer, read-out: IC50app^A (Fpg/Nei enzyme catalysis) mvNEI1) came to 14 ± 1 µM; on LlFpg, 41 ± 7 µM; at hNeil1 [6] (catalytic activity at 37 °C, compound stock in DMSO, DHU:G 24-mer, read-out: IC50app^A (Fpg/Nei enzyme catalysis) hNEIL1) it was 21 ± 1 µM. Besides, the “effect on mvNei1 DNA binding activity” value on mvNei1 [5] is “apparent inhibitory effects”. The “effect on hNeil1 catalytic activity” value on hNeil1 [6] (0.2 mM compound, Figure 4) is listed as “apparent inhibitory effects”. The “inhibition of hNeil1 DNA binding and catalytic activities in the presence of TCEP” value on hNeil1 [6] (setting [7]) was “suppressed”.
